Source: patent US10159685B2, “Vascular calcification” (Cambridge Enterprise Limited, priority 2016, dated 2018)
Like-named read-outs stand apart in the source and are kept apart here. Marks after values point to notes of the source that are not given here.

Tests used:
[1] = test system: bovine vascular smooth muscle cells (bVSMCs); experiment: Alizarin Red S staining, bVSMC GAD calcification model (Example 4); format: cell-based; conditions: GAD-treated bVSMCs, 10 μM, 7 d, versus no inhibitor
Experimental: (§1) For the bVSMCs a GAD medium (10 mM β-glycerophosphate/0.1 mM L-ascorbic acid-2-phosphate/10 nM dexamethasone) model was used to induce mineralization in bVSMCs. Accordingly, cells were seeded in tissue culture plates using M199/20% FCS culture medium and cultured overnight. The next day, cells were treated either with medium only (M199/5% FBS)+/−inhibitors, or with the GAD-medium (10 mM β-glycerophosphate/0.1 mM L-ascorbic acid-2-phosphate/[…] dexamethasone)+/−inhibitors.
Medium+/−inhibitors was exchanged every 2-3 days. Bovine VSMCs were incubated for 7 d prior to assessment.
The Alizarin Red S staining is a visual/histological stain for tissue calcium deposits. Cells are briefly fixed in 4% paraformaldehyde/PIPES buffer pH 7.2 and subsequently stained for 5 min with Alizarin Red S (2% Alizarin Red S/DIW pH 4.2). Excess stain is removed by washing in DIW. Calcium mineral deposits are stained a bright orange red.

[2] = test system: PARP produced by a mammalian cell; conditions: have been shown; cited from earlier work
[3] = test system: bovine vascular smooth muscle cells (bVSMCs); format: cell-based; conditions: 7 days; for Cell viability of bVSMCs after seven days (MTT signal, relative to control): mean of three experiments
Experimental: The toxicity of the identified compounds to bovine VSMCs was measured using the MTT assay, which measures the activity of dehydrogenase enzymes of live cells. This assay can pick up both cell death and proliferation.
Bovine VSMCs were seeded in 96 well plates and cultured in M199/20% FCS for 1 day. Then, the cells were incubated with inhibitor concentrations from 0.5 to 100 μM (in M199 medium+5% FBS). The cells were incubated with the inhibitors for 7 days; every 2-3 days the medium −/+inhibitors was exchanged. Then, the MTT assay was performed. The stock vehicle DMSO was tested at corresponding concentrations to the inhibitors at 0.1% DMSO or less.

[4] = test system: human monocyte-macrophages (HMMs); experiment: MTT toxicity assay, HMMs, seven days (Example 3); format: cell-based; conditions: 7 days; for Cell viability by MTT, percent of control: mean of three experiments
Experimental: A similar set of toxicity experiments was performed with human monocyte-macrophages (HMMs).

[5] = test system: bovine vascular smooth muscle cells (bVSMCs); experiment: o-Cresolphthalein Ca2+ assay, bVSMC GAD calcification model (Examples 4 and 5); format: cell-based
Experimental: as §1
Medium+/−inhibitors was exchanged every 2-3 days. […]
The o-Cresolphthalein assay is a spectrophotometric method for measuring Ca^2+-concentrations in cell/tissue lysates. Following the calcification experiments, cells are briefly washed to remove medium and 100 […]1 of 0.1 N HCl is added to each well to dissolve any mineral deposits. Then, the Ca^2+-concentration of the samples is measured spectrophotometrically (at 570 nm) in the o-cresolphthalein assay with the help of a CaCl2 standard curve in a concentration range of ˜0.02-270 µg Ca^2+/ml.
The commercial BioRad DC protein assay is based on the Lowry method, aka reaction of proteins with a copper-tartrate complex and subsequent reaction with Folin's reagent. Following the calcification experiment, cells are briefly washed to remove medium and 100 µl of solubilisation solution (0.1 M NaOH/1% SDS/DIW) is added to each well to lyse the cells. The protein concentrations of the lysates are subsequently determined in the BioRad DC assay as per supplier's instructions using BSA (bovine serum albumin) as standard.
The in vitro model is the same as the model used in example 4; bovine vascular smooth muscle cells (bVSMCs) cultured so that they produce extracellular matrix, with the addition of the GAD medium (10 mM β-glycerophosphate/0.1 mM L-ascorbic acid-2-phosphate/10 nM dexamethasone).
As above, cells were treated either with medium only (“no-additions”; NA)+/−inhibitors, or with the GAD-medium+/−inhibitors. The inhibitors used were PJ34 and minocyclin (MC) at 10 μM, 1 μM and 0.1 μM.
The methodology was the same as that described in example 4.

[6] = test system: human vascular smooth muscle cells (hVSMCs); experiment: o-Cresolphthalein Ca2+ assay, hVSMC Ca/P calcification model (Examples 7-9); format: cell-based; conditions: hVSMCs, 6 days; PJ34 10 μM; minocycline and cilostazol 0.5, 1 and 2 μM
Experimental: Primary hVSMCs were cultured in M199 media containing FBS (M199/5% FBS). They were plated at a known cell density, allowed to grow for 24 hours and then treated with control (DMSO only) or calcification media (DMSO containing 2.7 mM Calcium+2.5 mM phosphate)+/−inhibitors. After 6 days, calcification was assessed using the o-Cresolphthalein assay for quantification of Ca^2+ deposition and a BioRad protein assay for protein content.
Medium+/−inhibitors was exchanged every 2-3 days.
Primary hVSMCs were cultured in M199 media containing FBS (M199/5% FBS). They were plated at a known cell density, allowed to grow for 24 hours and then treated with control (DMSO only) or calcification media (DMSO containing 2.7 mM Calcium+2.5 mM phosphate)+/−inhibitors. After 8 days, calcification was assessed using o-Cresolphthalein assay for quantification of Ca^2+ deposition and a BioRad protein assay for protein content.
All of the compounds tested were used at a concentration of 3 μM. Medium+/−inhibitors was exchanged every 2-3 days.
Primary hVSMCs were cultured in M199 media containing FBS (M199/5% FBS). They were plated at a known cell density, allowed to grow for 24 hours and then treated with control (DMSO only) or calcification media (DMSO containing 2.7 mM Calcium+2.5 mM phosphate)+/−compounds. After 8 days, calcification was assessed using o-Cresolphthalein assay for quantification of Ca^2+ deposition and a BioRad protein assay for protein content.
These concentrations were chosen to mimic the systemic concentrations of these drugs following patient dosing according to the dose schedule in the prescribing information for each drug. Medium+/−inhibitors was exchanged every 2-3 days.

[7] = test system: bovine vascular smooth muscle cells (bVSMCs); experiment: MTT cell viability assay, bVSMCs with or without GAD medium, 7 or 9 days (Example 5); format: cell-based
Experimental: As above, cells were treated either with medium only (“no-additions”; NA)+/−inhibitors, or with the GAD-medium+/−inhibitors. […] Additionally, an MTT assay was performed as a measure of cell viability/proliferation. Bovine VSMCs were seeded in 96 well plates and cultured in M199/20% FCS for 1 day. Then, the cells were incubated with inhibitor concentrations of 10 μM, 1 μM and 0.1 μM (in M199 medium+5% FBS). […] Then, the MTT assay was performed.

SMILES: CN(C)CC(=O)Nc1ccc2[nH]c(=O)c3ccccc3c2c1.Cl [PJ34, N-(6-Oxo-5,6-dihydrophenanthridin-2-yl)-(N,N-dimethylamino)acetamide hydrochloride]
- Degree of mineralization judged by eye (Alizarin Red S, FIG. 6) [1]: slightly worse
- Inhibition of PARP produced by a mammalian cell [2]: inhibit PARP
- Cell viability of bVSMCs after seven days (MTT signal, relative to control) ([3]; 0.5 uM): 102.59
- Cell viability of bVSMCs after seven days (MTT signal, relative to control) ([3]; 1 uM): 98.89
- Cell viability of bVSMCs after seven days (MTT signal, relative to control) ([3]; 2 uM): 92.33
- Cell viability of bVSMCs after seven days (MTT signal, relative to control) ([3]; 5 uM): 95.74
- Cell viability of bVSMCs after seven days (MTT signal, relative to control) ([3]; 10 uM): 97.07
- Cell viability of bVSMCs after seven days (MTT signal, relative to control) ([3]; 20 uM): 99.71
- Cell viability of bVSMCs after seven days (MTT signal, relative to control) ([3]; 50 uM): 80.83*
- Cell viability of bVSMCs after seven days (MTT signal, relative to control) ([3]; 100 uM): 53.72*
- Toxicity to bVSMCs (MTT assay, in words) ([3]; at 50 and 100 μM): toxic
- Cell death in bVSMCs (FIG. 4A and example 2) ([3]; bVSMCs): induce some cell death
- Cell viability by MTT, percent of control ([4]; 0.5 uM): 106.63
- Cell viability by MTT, percent of control ([4]; 1 uM): 88.38
- Cell viability by MTT, percent of control ([4]; 2 uM): 84.08
- Cell viability by MTT, percent of control ([4]; 5 uM): 95.65
- Cell viability by MTT, percent of control ([4]; 10 uM): 77.14
- Cell viability by MTT, percent of control ([4]; 20 uM): 74.86
- Cell viability by MTT, percent of control ([4]; 50 uM): 60.33*
- Cell viability by MTT, percent of control ([4]; 100 uM): 37.30*
- Toxicity to HMMs (in words) ([4]; at a concentration of 100 μM): most toxic
- Calcium levels (mass of calcium, FIG. 7B) compared to no inhibitors ([5]; GAD-treated bVSMCs, 10 μM, 7 d): elevate calcium levels
- Normalised calcium levels (mass of calcium per mass of protein, FIG. 9B) ([5]; GAD-treated bVSMCs, 10 μM, 7 d): elevate calcium levels
- Effect on calcification (in words, discussion of Example 5) ([5]; bVSMC GAD model): encouraging calcification
- Ca^2+ concentration found in bVSMCs, mean ([5]; nine days, no GAD, 0.1 μM): 1.438 μg calcium/ml
- Ca^2+ concentration found in bVSMCs, mean ([5]; nine days, no GAD, 1 μM): 1.179 μg calcium/ml
- Ca^2+ concentration found in bVSMCs, mean ([5]; nine days, no GAD, 10 μM): 1.061 μg calcium/ml
- Ca^2+ concentration found in bVSMCs, mean ([5]; nine days, with GAD, 0.1 μM): 22.69 μg calcium/ml
- Ca^2+ concentration found in bVSMCs, mean ([5]; nine days, with GAD, 1 μM): 132.87 μg calcium/ml
- Ca^2+ concentration found in bVSMCs, mean ([5]; nine days, with GAD, 10 μM): 66.68 μg calcium/ml
- Ca^2+ concentration found in bVSMCs, mean ([5]; seven days, no GAD, 0.1 μM): 0.612 μg calcium/ml
- Ca^2+ concentration found in bVSMCs, mean ([5]; seven days, no GAD, 1 μM): 0.565 μg calcium/ml
- Ca^2+ concentration found in bVSMCs, mean ([5]; seven days, no GAD, 10 μM): 0.561 μg calcium/ml
- Ca^2+ concentration found in bVSMCs, mean ([5]; seven days, with GAD, 0.1 μM): 1.84 μg calcium/ml
- Ca^2+ concentration found in bVSMCs, mean ([5]; seven days, with GAD, 1 μM): 4.06 μg calcium/ml
- Ca^2+ concentration found in bVSMCs, mean ([5]; seven days, with GAD, 10 μM): 4.93 μg calcium/ml
- Calcium levels (mass of calcium, FIG. 17) versus DMSO Ca+P positive control [6]: reduce the calcium levels
- Normalised calcium levels (mass of calcium per mass of protein, FIG. 19) [6]: lower calcium levels significantly
- Cell viability (%) mean ([7]; nine days, no GAD, 0.1 μM): 99.88%
- Cell viability (%) mean ([7]; nine days, no GAD, 1 μM): 97.1%
- Cell viability (%) mean ([7]; nine days, no GAD, 10 μM): 98.3%
- Cell viability (%) mean ([7]; nine days, with GAD, 0.1 μM): 69.43%
- Cell viability (%) mean ([7]; nine days, with GAD, 1 μM): 59.06%
- Cell viability (%) mean ([7]; nine days, with GAD, 10 μM): 69.43%
- Cell viability (%) mean ([7]; seven days, no GAD, 0.1 μM): 93.81%
- Cell viability (%) mean ([7]; seven days, no GAD, 1 μM): 97.16%
- Cell viability (%) mean ([7]; seven days, no GAD, 10 μM): 99.25%
- Cell viability (%) mean ([7]; seven days, with GAD, 0.1 μM): 96.46%
- Cell viability (%) mean ([7]; seven days, with GAD, 1 μM): 94.61%
- Cell viability (%) mean ([7]; seven days, with GAD, 10 μM): 90.03%
